Data reported in DBAASP.
Values after ≈ are worked out from the molar mass of the structure shown. Values joined by “and” are separate entries in the source; they are usually repeats but may differ in a detail not shown here. Equal values may be shown once.

What was measured:
Test in all cases: ≥ marks a high value that may be exact or a test limit, other limits are often not marked, values filed in µg/mL are converted to µM
[1] = tested on: Staphylococcus aureus ATCC 25923
[2] = tested on: Staphylococcus aureus ATCC 33591
[3] = tested on: Klebsiella pneumoniae ATCC 700603
[4] = tested on: Escherichia coli CGSC 5167
[5] = tested on: Escherichia coli ATCC 25922
[6] = tested on: Pseudomonas aeruginosa ATCC 10145
[7] = tested on: Streptococcus pneumoniae ATCC 700677
[8] = tested on: Klebsiella pneumoniae ATCC 13883
[9] = tested on: Enterococcus faecium ATCC 35667
[10] = tested on: Pseudomonas aeruginosa ATCC 27853
[11] = tested on: Enterococcus faecium ATCC 51559
[12] = tested on: Streptococcus pneumoniae ATCC 33400
[13] = tested on: Enterococcus faecalis ATCC 29212
[14] = tested on: Pseudomonas aeruginosa LCCE
[15] = tested on: Staphylococcus epidermidis ATCC 12228
[16] = tested on: Salmonella enterica subsp. enterica serovar Typhimurium C77-31
[17] = tested on: Pseudomonas aeruginosa LCCI
[18] = tested on: Staphylococcus aureus ATCC 29213
[19] = tested on: Pseudomonas aeruginosa ATCC 21625
[20] = tested on: Pseudomonas aeruginosa LCGE
[21] = tested on: Pseudomonas aeruginosa ATCC 10419
[22] = tested on: Pseudomonas aeruginosa LC
[23] = tested on: Escherichia coli UB1005
[24] = tested on: Pseudomonas aeruginosa ATCC 21630
[25] = tested on: Enterobacter cloacae ATCC 49141
[26] = tested on: Candida albicans ATCC 10231
[27] = tested on: Enterococcus faecalis ATCC 19433
[28] = tested on: Escherichia coli D21
[29] = tested on: Acinetobacter baumannii ATCC 19606
[30] = tested on: Aspergillus fumigatus ATCC 26430
[31] = tested on: Staphylococcus aureus II ATCC 6538P
[32] = tested on: Staphylococcus aureus mprF
[33] = tested on: Acinetobacter baumannii
[34] = tested on: Streptococcus pyogenes NZ131
[35] = tested on: Candida albicans ATCC 14053
[36] = tested on: Escherichia coli O29
[37] = tested on: Serratia sp. ATCC 39006
[38] = tested on: Staphylococcus aureus ATCC 43330
[39] = tested on: Micrococcus luteus ATCC 49732
[40] = tested on: Salmonella enterica subsp. enterica serovar Typhimurium ATCC 14028
[41] = tested on: Proteus vulgaris ATCC 49132
[42] = tested on: Shigella sonnei ATCC 25931
[43] = tested on: Staphylococcus saprophyticus ATCC 15305
[44] = tested on: Streptococcus agalactiae ATCC 12386
[45] = tested on: Neisseria gonorrhoeae ATCC 49226

CC[C@H](C)[C@H](NC(=O)[C@H](CCCN=C(N)N)NC(=O)[C@H](CCCN=C(N)N)NC(=O)[C@H](Cc1ccccc1)NC(=O)[C@H](CC(C)C)NC(=O)[C@H](CCCN=C(N)N)NC(=O)[C@@H](N)CCCN=C(N)N)C(=O)N[C@@H](CC(C)C)C(=O)N[C@@H](CCCN=C(N)N)C(=O)N[C@@H](Cc1ccc(O)cc1)C(=O)N[C@@H](CC(C)C)C(N)=O [RRLFRRILRYL]
MIC [1]: 6 µM (≈ 9.37 µg/mL)
MIC [2]: 3 µM (≈ 4.68 µg/mL)
MIC [3]: 0.6 µM (≈ 0.937 µg/mL)
MIC [4]: 0.4 µM (≈ 0.624 µg/mL)
MIC [5]: 0.9 µM (≈ 1.4 µg/mL)
MIC [6]: 2 µM (≈ 3.12 µg/mL)
MIC [7]: 4 µM (≈ 6.24 µg/mL)
MIC [8]: 0.3 µM (≈ 0.468 µg/mL)
MIC [9]: 4 µM (≈ 6.24 µg/mL)
MIC [10]: 1.5 µM (≈ 2.34 µg/mL)
MIC [11]: 2 µM (≈ 3.12 µg/mL)
MIC [12]: 5 µM (≈ 7.8 µg/mL)

CC[C@H](C)[C@H](NC(=O)[C@H](CCCCN)NC(=O)[C@H](CCCCN)NC(=O)[C@H](CC(C)C)NC(=O)[C@H](CCCN=C(N)N)NC(=O)[C@H](CCCCN)NC(=O)[C@H](CCCN=C(N)N)NC(=O)[C@@H](NC(=O)[C@H](CCCCN)NC(=O)[C@H](CCCCN)NC(=O)[C@H](CCCN=C(N)N)NC(=O)[C@H](CC(C)C)NC(=O)[C@H](CCCN=C(N)N)NC(=O)[C@H](CCCN=C(N)N)NC(=O)[C@H](Cc1ccccc1)NC(=O)[C@@H](N)CCCN=C(N)N)[C@@H](C)O)C(N)=O [RFRRLRKKTRKRLKKI]
MIC [13]: 128 µM (≈ 279 µg/mL)
MIC [14]: ≥ 256 µM
MIC [15]: 32 µM (≈ 69.8 µg/mL)
MIC [16]: ≥ 128 µM
MIC [17]: ≥ 256 µM
MIC [18]: 128 µM (≈ 279 µg/mL)
MIC [19]: ≥ 256 µM
MIC [5]: 128 µM (≈ 279 µg/mL)
MIC [20]: ≥ 256 µM
MIC [21]: ≥ 256 µM
MIC [22]: ≥ 32 µM
MIC [23]: ≥ 128 µM
MIC [10]: 256 µM (≈ 559 µg/mL)
MIC [24]: ≥ 256 µM

CC(C)C[C@H](NC(=O)[C@H](Cc1cnc[nH]1)NC(=O)[C@H](CCCCN)NC(=O)[C@H](CC(C)C)NC(=O)[C@H](CC(C)C)NC(=O)[C@H](Cc1cnc[nH]1)NC(=O)[C@H](CCCCN)NC(=O)[C@H](CC(C)C)NC(=O)[C@H](CC(C)C)NC(=O)[C@H](Cc1cnc[nH]1)NC(=O)[C@H](CCCCN)NC(=O)[C@H](CC(C)C)NC(=O)[C@H](C)NC(=O)[C@H](CC(=O)O)NC(=O)[C@@H](N)CC(=O)O)C(=O)O [DDALKHLLKHLLKHL]
MIC [25]: ≥ 100 µM
MIC [26]: 12.5 µM (≈ 22.4 µg/mL)
MIC [27]: 25 µM (≈ 44.9 µg/mL)
MIC [28]: ≥ 50 µM
MIC [5]: 100 µM (≈ 179 µg/mL)
MIC [29]: 50 µM (≈ 89.7 µg/mL)
MIC [10]: 50 µM (≈ 89.7 µg/mL)
MIC [30]: 12.5 µM and 25 µM
MIC [31]: 25 µM and 22 µM

CC[C@H](C)[C@H](NC(=O)[C@H](CCCN=C(N)N)NC(=O)[C@H](CCC(N)=O)NC(=O)[C@@H](NC(=O)[C@@H](NC(=O)[C@H](CCCN=C(N)N)NC(=O)[C@@H](N)CCCCN)[C@@H](C)CC)C(C)C)C(=O)N[C@@H](CCCCN)C(=O)N[C@@H](CC(=O)O)C(=O)N[C@@H](Cc1ccccc1)C(=O)N[C@@H](CC(C)C)C(=O)N[C@@H](CCCN=C(N)N)C(=O)N[C@@H](CC(N)=O)C(=O)N[C@@H](CC(C)C)C(=O)N[C@H](C(=O)N1CCC[C@H]1C(=O)N[C@@H](CCCN=C(N)N)C(=O)N[C@H](C(=O)N[C@@H](CCC(=O)O)C(=O)N[C@@H](CO)C(=O)O)[C@@H](C)O)C(C)C [KRIVQRIKDFLRNLVPRTES]
MIC [1]: > 64 µM
MIC [32]: 16 µM (≈ 39.5 µg/mL)
MIC [33]: 9.16 µM (≈ 22.6 µg/mL)
MIC [34]: 4 µM (≈ 9.88 µg/mL)
MIC [35]: 10 µM (≈ 24.7 µg/mL)
MIC [29]: 25.9 µM (≈ 64 µg/mL)
MIC [36]: ≥ 64 µM

CC[C@H](C)[C@H](NC(=O)[C@H](CCCCN)NC(=O)[C@H](CCCN=C(N)N)NC(=O)[C@H](CC(C)C)NC(=O)[C@H](Cc1ccccc1)NC(=O)[C@H](CCCN=C(N)N)NC(=O)CNC(=O)[C@H](Cc1ccccc1)NC(=O)[C@@H](N)CCCN=C(N)N)C(=O)N[C@@H](CCCN=C(N)N)C(=O)N[C@@H](CCCN=C(N)N)C(=O)N[C@@H](Cc1ccccc1)C(=O)N[C@@H](CCCN=C(N)N)C(=O)N1CCC[C@H]1C(=O)N[C@@H](CCCCN)C(=O)N[C@H](C(=O)N[C@H](C(=O)N[C@H](C(=O)N[C@H](C(=O)N[C@H](C(=O)N[C@@H](CCC(N)=O)C(=O)NCC(=O)N[C@@H](CO)C(=O)N[C@@H](C)C(=O)N[C@@H](CCCN=C(N)N)C(=O)N[C@@H](Cc1ccccc1)C(N)=O)[C@@H](C)CC)[C@@H](C)O)[C@@H](C)CC)[C@@H](C)O)C(C)C [RFGRFLRKIRRFRPKVTITIQGSARF]
MIC [37]: 3.9 µM (≈ 12.5 µg/mL)
MIC [1]: 2.25 µM (≈ 7.21 µg/mL)
MIC [13]: 2.25 µM (≈ 7.21 µg/mL)
MIC [15]: 2.92 µM (≈ 9.37 µg/mL)
MIC [38]: 2.6 µM (≈ 8.33 µg/mL)
MIC [39]: 0.814 µM (≈ 2.61 µg/mL)
MIC [3]: 4.55 µM (≈ 14.6 µg/mL)
MIC [40]: 2.25 µM (≈ 7.21 µg/mL)
MIC [5]: 1.62 µM (≈ 5.21 µg/mL)
MIC [41]: 3.25 µM (≈ 10.4 µg/mL)
MIC [42]: 3.9 µM (≈ 12.5 µg/mL)
MIC [43]: 0.976 µM (≈ 3.13 µg/mL)
MIC [44]: 2.6 µM (≈ 8.33 µg/mL)
MIC [45]: 5.2 µM (≈ 16.7 µg/mL)
